The values that follow come from publication PMC3632601, “Polyacetylenes from Notopterygium incisum–New Selective Partial Agonists of Peroxisome Proliferator-Activated Receptor-Gamma” (PLoS ONE, 2013).

The first assay deals with T1, human PPARα (Homo sapiens, UniProt Q07869).
T1 construct: expressed in transfected cells; host or cells: HEK-293
T1 sequence (Q07869 1-468): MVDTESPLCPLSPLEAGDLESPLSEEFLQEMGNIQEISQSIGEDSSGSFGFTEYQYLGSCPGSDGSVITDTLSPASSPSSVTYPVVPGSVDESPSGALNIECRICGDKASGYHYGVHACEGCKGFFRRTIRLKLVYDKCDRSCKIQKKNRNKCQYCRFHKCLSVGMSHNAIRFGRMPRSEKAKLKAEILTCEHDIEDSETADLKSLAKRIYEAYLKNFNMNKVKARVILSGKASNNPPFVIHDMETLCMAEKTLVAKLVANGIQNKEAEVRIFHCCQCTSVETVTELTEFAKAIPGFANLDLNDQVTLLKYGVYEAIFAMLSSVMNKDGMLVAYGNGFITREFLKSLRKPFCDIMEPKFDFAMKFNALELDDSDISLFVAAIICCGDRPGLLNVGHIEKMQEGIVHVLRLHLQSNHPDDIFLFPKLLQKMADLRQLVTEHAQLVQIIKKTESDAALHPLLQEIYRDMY
Nature of the assay: PPARα luciferase reporter gene transactivation in transfected HEK-293 cells. The class given is cell-based. The following applies: HEK-293, tk-PPREx3-luc reporter, 18 h, 0.1–30 µM; n.d. = not detected up to 30 µM; read-out: PPARα activation EC50. On the procedure:
(§1) HEK-293 cells (ATCC, USA) were cultured in DMEM with phenol red, supplemented with 100 U/ml benzylpenicillin, 100 µg/ml streptomycin, 2 mM L-glutamine, and 10% FBS. Cells were maintained in 75 cm^2 flasks containing 10 ml medium at 37°C and 5% CO2. The cells were seeded in 10 cm dishes at a density of 6 × 10^6 cells/dish, incubated for 18 h, and transfected by the calcium phosphate precipitation method with 4 µg of the reporter plasmid (tk-PPREx3-luc), 4 µg from the respective PPAR subtype expression plasmid, and 2 µg green fluorescent protein plasmid (pEGFP-N1, Clontech, Mountain View, CA) as internal control. After 6 h, the transfected cells were harvested and re-seeded (5 × 10^4 cells/well) in 96-well plates containing DMEM without phenol red, supplemented with 100 U/ml benzylpenicillin, 100 µg/ml streptomycin, 2 mM L-glutamine, and 5% charcoal-stripped FBS. The cells were further treated with the indicated extracts or compounds or the solvent vehicle and incubated for 18 h. The medium was then discarded and the cells were lysed with a reporter lysis buffer (E3971, Promega, Madison, USA). Luciferase activity of the cell lysates was evaluated using a GeniosPro plate reader (Tecan, Grödig, Austria). The luminescence signals obtained from the luciferase activity measurements were normalized to the EGFP-derived fluorescence, to account for differences in the transfection efficiency or cell number.
On the technique in general: Reporter assays use an easily measured gene product as a stand-in for the process of interest.
Take `C=C[C@@H](O)C#CC#C[C@@H](O)C1OC1CCCCCCC` (stereo partly drawn) [compound 3, 1R,6R-1-(3-heptyloxiran-2-yl)octa-7-ene-2,4-diyne-1,6-diol]: the EC50 is above 30 µM.
For the molecule `CCCCCCC/C=C\CC#CC#CCCCO` [compound 5, 9Z-heptadecene-4,6-diyne-1-ol], the EC50 was above 30 µM.
Still for that read-out and setting: the same measure for `CCCCCCC/C=C\CC#CC#C/C=C\CO` [compound 6, 2Z,9Z-heptadecadiene-4,6-diyne-1-ol]: above 30 µM.

Another assay addresses T2, human PPARβ/δ (Homo sapiens, UniProt Q03181).
T2 construct: expressed in transfected cells; host or cells: HEK-293
T2 sequence (Q03181 1-441): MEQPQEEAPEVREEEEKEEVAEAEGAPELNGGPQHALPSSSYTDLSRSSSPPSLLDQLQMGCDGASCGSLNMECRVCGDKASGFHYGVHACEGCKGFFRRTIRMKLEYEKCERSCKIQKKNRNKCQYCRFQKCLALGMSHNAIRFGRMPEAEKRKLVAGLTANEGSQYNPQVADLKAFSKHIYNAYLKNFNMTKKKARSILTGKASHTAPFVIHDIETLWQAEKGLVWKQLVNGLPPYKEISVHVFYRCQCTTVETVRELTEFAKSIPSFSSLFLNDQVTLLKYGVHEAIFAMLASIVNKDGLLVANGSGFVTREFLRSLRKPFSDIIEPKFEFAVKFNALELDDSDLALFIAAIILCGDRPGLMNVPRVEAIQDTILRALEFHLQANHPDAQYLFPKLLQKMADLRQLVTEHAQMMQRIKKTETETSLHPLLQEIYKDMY
Nature of the assay: PPARβ/δ luciferase reporter gene transactivation in transfected HEK-293 cells. Format: cell-based. The following applies: HEK-293, tk-PPREx3-luc reporter, 18 h, 0.1–30 µM; n.d. = not detected up to 30 µM; read-out: PPARβ/δ activation EC50. As to the method:
as §1
Regarding `C=C[C@@H](O)C#CC#C[C@@H](O)C1OC1CCCCCCC` (stereo partly drawn) [compound 3, 1R,6R-1-(3-heptyloxiran-2-yl)octa-7-ene-2,4-diyne-1,6-diol], the EC50 was above 30 µM.
Turning to `CCCCCCC/C=C\CC#CC#CCCCO` [compound 5, 9Z-heptadecene-4,6-diyne-1-ol], the EC50 is above 30 µM.
Still for that read-out and setting: the same measure for `CCCCCCC/C=C\CC#CC#C/C=C\CO` [compound 6, 2Z,9Z-heptadecadiene-4,6-diyne-1-ol]: above 30 µM.

In the next assay the target is T3, human PPARγ (Homo sapiens, UniProt P37231).
T3 sequence (P37231 1-477 isoform P37231-2): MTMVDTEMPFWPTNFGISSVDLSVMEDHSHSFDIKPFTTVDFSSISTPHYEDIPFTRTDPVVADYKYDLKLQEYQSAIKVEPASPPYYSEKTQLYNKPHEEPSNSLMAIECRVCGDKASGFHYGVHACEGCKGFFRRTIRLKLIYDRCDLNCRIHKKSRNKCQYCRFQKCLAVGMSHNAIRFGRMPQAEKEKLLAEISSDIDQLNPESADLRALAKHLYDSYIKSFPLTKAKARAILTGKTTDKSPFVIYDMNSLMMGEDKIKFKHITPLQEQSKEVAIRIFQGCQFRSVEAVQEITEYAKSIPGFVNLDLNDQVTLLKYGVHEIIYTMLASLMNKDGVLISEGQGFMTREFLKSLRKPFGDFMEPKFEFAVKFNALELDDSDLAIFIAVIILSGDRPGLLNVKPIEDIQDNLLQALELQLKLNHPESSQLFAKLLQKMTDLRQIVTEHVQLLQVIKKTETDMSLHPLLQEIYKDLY
Nature of the assay: PPARγ luciferase reporter gene transactivation in transfected HEK-293 cells.
Conditions: not given
`C=C[C@@H](O)C#CC#C[C@@H](O)C1OC1CCCCCCC` (stereo partly drawn) [compound 3, 1R,6R-1-(3-heptyloxiran-2-yl)octa-7-ene-2,4-diyne-1,6-diol] registered an EC50 of 2.03 µM.
In turn, `CCCCCCC/C=C\CC#CC#CCCCO` [compound 5, 9Z-heptadecene-4,6-diyne-1-ol] returned an EC50 of 11.3 µM.
The molecule `CCCCCCC/C=C\CC#CC#C/C=C\CO` [compound 6, 2Z,9Z-heptadecadiene-4,6-diyne-1-ol] gave an EC50 of 4.18 µM.

The assay is the same for the next values; noted with them: HEK-293, 18 h, fold induction above vehicle control (DMSO 0.1%).
Turning to `C=C[C@@H](O)C#CC#C[C@@H](O)C1OC1CCCCCCC` (stereo partly drawn) [compound 3, 1R,6R-1-(3-heptyloxiran-2-yl)octa-7-ene-2,4-diyne-1,6-diol], the “PPARγ activation maximal fold activation” value is 1.88 fold.
As to `CCCCCCC/C=C\CC#CC#CCCCO` [compound 5, 9Z-heptadecene-4,6-diyne-1-ol], the “PPARγ activation maximal fold activation” value was determined as 1.92 fold.
Turning to `CCCCCCC/C=C\CC#CC#C/C=C\CO` [compound 6, 2Z,9Z-heptadecadiene-4,6-diyne-1-ol], the “PPARγ activation maximal fold activation” value was determined as 1.73 fold.
